Experimental findings from patent publication US12227501B2, “3-amino-2-[2-(acylamino)pyridin-4-yl]-1,5,6,7-tetrahydro-4h-pyrrolo[3,2-c]pyridin-4-one as CSNK1 inhibitors” (Bayer Aktiengesellschaft, priority 2019, dated 2025) are described below.

Holding throughout (format): biochemical
Experiment [1] deals with T1, human CSNK1A1 (Homo sapiens (Human), UniProt P48729). In words: CSNK1A1 Assay 2 (ADP-Glo, 1 μM ATP). The note with it: substrate biotin-Ahx-KRRRAL-pS-VASLPGL, read-out: CSNK1A1 Assay 2 IC50 [mol/l] (median). The method in brief: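 Full-length human CSNK1A1 as an N-terminal GST fusion (baculovirus/insect cells) with biotinylated peptide substrate biotin-Ahx-KRRRAL-pS-VASLPGL and 1 μM ATP, in HEPES pH 7.5 buffer. Compounds were pre-incubated with enzyme (~0.0375 ng/μL) for 15 min at 22 °C. Generated ADP was read by ADP-Glo luminescence as the activity measure.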
Background: ADP-Glo first removes unused ATP, then detects ADP through luciferase.

A further experiment has as its target human CSNK1D (Homo sapiens (Human), UniProt P48730). In words: CSNK1D Assay (ADP-Glo, 1 μM ATP). The settings on record: read-out: CSNK1D IC50 [mol/l] (median). The method, boiled down: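 Activity is read as ADP produced, by ADP-Glo luminescence after 1 h steps at 22 °C. The reaction uses 1 μM ATP, a biotinylated peptide and insect-cell-expressed GST–CSNK1D (about 0.5 ng/μL) in pH 7.5 HEPES buffer, with 15 min compound–enzyme preincubation.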

Experiment [2] has as its target wild-type Epidermal Growth Factor Receptor (EGFR) (Homo sapiens (Human), UniProt P00533). The experiment can be described thus: WT-EGFR Kinase Assay (TR-FRET, 2 mM ATP). The note with it: read-out: EGFR Wildtyp- 2 mM ATP IC50 [mol/l] (median).
The target in experiment [3] is T1, human CSNK1A1. The experiment can be described thus: CSNK1A1 High ATP Assay (ADP-Glo, 1 mM ATP). The settings on record: read-out: CSNK1A1 high ATP assay IC50 [mol/l] (median). The method, boiled down: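 Kinase activity taken as ADP generated, quantified by ADP-Glo luminescence after 1 h ATP depletion and 1 h detection at 22 °C. Enzyme is GST–full-length human CSNK1A1 (insect cell-expressed), pre-bound to compound for 15 min, with phosphopeptide substrate and 1 mM ATP.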

Chain of human CSNK1D (P48730 whole entry): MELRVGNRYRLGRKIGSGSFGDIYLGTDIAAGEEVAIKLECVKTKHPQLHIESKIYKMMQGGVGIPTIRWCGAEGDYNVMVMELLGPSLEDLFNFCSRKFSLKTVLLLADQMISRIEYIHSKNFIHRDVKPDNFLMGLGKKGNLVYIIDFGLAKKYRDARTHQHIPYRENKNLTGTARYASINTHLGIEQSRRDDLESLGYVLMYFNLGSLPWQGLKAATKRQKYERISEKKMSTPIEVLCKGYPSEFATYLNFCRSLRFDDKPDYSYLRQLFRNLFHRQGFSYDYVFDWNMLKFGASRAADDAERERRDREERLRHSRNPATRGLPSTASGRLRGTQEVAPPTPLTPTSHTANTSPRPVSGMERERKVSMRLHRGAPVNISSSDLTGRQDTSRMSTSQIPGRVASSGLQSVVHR
Chain of wild-type Epidermal Growth Factor Receptor (EGFR) (P00533 669-1210): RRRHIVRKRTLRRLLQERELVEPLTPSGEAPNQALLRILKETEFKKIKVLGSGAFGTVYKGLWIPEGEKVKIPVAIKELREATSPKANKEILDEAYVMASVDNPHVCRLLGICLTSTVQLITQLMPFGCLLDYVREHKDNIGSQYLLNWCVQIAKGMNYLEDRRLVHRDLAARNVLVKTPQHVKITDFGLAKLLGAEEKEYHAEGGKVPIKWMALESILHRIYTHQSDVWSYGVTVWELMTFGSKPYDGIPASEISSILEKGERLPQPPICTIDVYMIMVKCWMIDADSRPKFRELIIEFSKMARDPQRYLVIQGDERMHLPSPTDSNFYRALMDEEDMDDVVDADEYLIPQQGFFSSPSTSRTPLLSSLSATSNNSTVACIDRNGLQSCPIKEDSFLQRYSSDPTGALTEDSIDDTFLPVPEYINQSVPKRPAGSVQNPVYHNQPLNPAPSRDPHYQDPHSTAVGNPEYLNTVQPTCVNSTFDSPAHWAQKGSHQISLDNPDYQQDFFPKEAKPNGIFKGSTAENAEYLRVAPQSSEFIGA
T1 sequence (P48729 whole entry, the tested form may be a part): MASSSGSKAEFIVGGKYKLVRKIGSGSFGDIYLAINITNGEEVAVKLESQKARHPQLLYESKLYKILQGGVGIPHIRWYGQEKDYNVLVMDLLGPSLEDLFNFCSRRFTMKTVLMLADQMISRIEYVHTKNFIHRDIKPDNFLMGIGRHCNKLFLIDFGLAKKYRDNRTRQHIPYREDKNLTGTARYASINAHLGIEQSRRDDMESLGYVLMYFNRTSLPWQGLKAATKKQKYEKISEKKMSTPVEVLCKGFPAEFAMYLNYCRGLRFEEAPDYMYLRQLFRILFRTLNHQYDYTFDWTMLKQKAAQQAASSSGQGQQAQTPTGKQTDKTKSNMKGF

In the case of `CN1CCc2[nH]c(-c3ccnc(NC(=O)C(CC(F)F)c4ccccc4)c3)c(Nc3ccccc3)c2C1=O` (stereo not shown) [Example 33, N-[4-(3-anilino-5-methyl-4-oxo-4,5,6,7-tetrahydro-1H-pyrrolo[3,2-c]pyridin-2-yl)pyridin-2-yl]-4,4-difluoro-2-phenylbutanamide], the IC50 was 6.15 nM at human CSNK1A1 [1], 18.1 nM at human CSNK1D, more than 20000 nM in experiment [2] and 72.2 nM at human CSNK1A1 [3].

`CN1C(=O)c2c([nH]c(-c3ccnc(NC(=O)Cc4ccc(F)cc4)c3)c2Nc2ccccc2)CC1(C)C` [Example 44, N-[4-(3-anilino-5,6,6-trimethyl-4-oxo-4,5,6,7-tetrahydro-1H-pyrrolo[3,2-c]pyridin-2-yl)pyridin-2-yl]-2-(4-fluorophenyl)acetamide]: the IC50 is 4.82 nM on human CSNK1A1 [1], 10.7 nM on human CSNK1D, 4140 nM in experiment [2] and 671 nM at human CSNK1A1 [3].

As for `CC1(C)Cc2[nH]c(-c3ccnc(NC(=O)Cc4ccncc4)c3)c(Nc3ccccc3)c2C(=O)N1` [Example 51, N-[4-(3-anilino-6,6-dimethyl-4-oxo-4,5,6,7-tetrahydro-1H-pyrrolo[3,2-c]pyridin-2-yl)pyridin-2-yl]-2-(pyridin-4-yl)acetamide], the IC50 on human CSNK1A1 [1] is 4.87 nM; on human CSNK1D, 6.67 nM; in experiment [2], 563 nM; on human CSNK1A1 [3], 25.8 nM.

`CC1(C)Cc2[nH]c(-c3ccnc(NC(=O)Cc4cccnc4)c3)c(Nc3ccccc3)c2C(=O)N1` [Example 52, N-[4-(3-anilino-6,6-dimethyl-4-oxo-4,5,6,7-tetrahydro-1H-pyrrolo[3,2-c]pyridin-2-yl)pyridin-2-yl]-2-(pyridin-3-yl)acetamide]: the IC50 is 4.91 nM on human CSNK1A1 [1], 6.78 nM at human CSNK1D, 526 nM in experiment [2] and 25.4 nM at human CSNK1A1 [3].

On to `COCCN1CCc2[nH]c(-c3ccnc(NC(=O)Cc4ccc(F)cc4)c3)c(Nc3ccccc3)c2C1=O` [Example 53, N-{4-[3-anilino-5-(2-methoxyethyl)-4-oxo-4,5,6,7-tetrahydro-1H-pyrrolo[3,2-c]pyridin-2-yl]pyridin-2-yl}-2-(4-fluorophenyl)acetamide], for which the IC50 worked out at 9.68 nM on human CSNK1A1 [1], 15 nM at human CSNK1D, 6030 nM in experiment [2] and 907 nM at human CSNK1A1 [3].

On to `O=C(Cc1ccc(F)cc1)Nc1cc(-c2[nH]c3c(c2Nc2ccccc2)C(=O)NC2(CCC2)C3)ccn1` [Example 57, N-[4-(3′-anilino-4′-oxo-1′,4′,5′,7′-tetrahydrospiro[cyclobutane-1,6′-pyrrolo[3,2-c]pyridin]-2′-yl)pyridin-2-yl]-2-(4-fluorophenyl)acetamide], for which the IC50 on human CSNK1A1 [1] amounted to 2.01 nM; at human CSNK1D, 3.1 nM; in experiment [2] it was 870 nM; at human CSNK1A1 [3] it was 10.3 nM.

`CN1CCc2[nH]c(-c3ccnc(NC(=O)Cc4ccncc4)c3)c(Nc3ccccc3)c2C1=O` [Example 64, N-[4-(3-anilino-5-methyl-4-oxo-4,5,6,7-tetrahydro-1H-pyrrolo[3,2-c]pyridin-2-yl)pyridin-2-yl]-2-(pyridin-4-yl)acetamide]: the IC50 on human CSNK1A1 [1] turned out to be 2.65 nM; at human CSNK1D, 5.51 nM; in experiment [2] it was 1200 nM; on human CSNK1A1 [3], 31 nM.

Take `CN1CCc2[nH]c(-c3ccnc(NC(=O)Cc4ccc(S(C)(=O)=O)cc4)c3)c(Nc3ccccc3)c2C1=O` [Example 65, N-[4-(3-anilino-5-methyl-4-oxo-4,5,6,7-tetrahydro-1H-pyrrolo[3,2-c]pyridin-2-yl)pyridin-2-yl]-2-[4-(methanesulfonyl)phenyl]acetamide]: the IC50 at human CSNK1A1 [1] worked out at 1.51 nM; at human CSNK1D, 5.46 nM; in experiment [2], 490 nM; on human CSNK1A1 [3], 17.5 nM.

Consider `CN1CCc2[nH]c(-c3ccnc(NC(=O)Cc4ccc(C(F)(F)F)cc4)c3)c(Nc3ccccc3)c2C1=O` [Example 66, N-[4-(3-anilino-5-methyl-4-oxo-4,5,6,7-tetrahydro-1H-pyrrolo[3,2-c]pyridin-2-yl)pyridin-2-yl]-2-[4-(trifluoromethyl)phenyl]acetamide], for which the IC50 was 2.75 nM on human CSNK1A1 [1], 5.57 nM at human CSNK1D, 8550 nM in experiment [2] and 33.5 nM on human CSNK1A1 [3].

Regarding `CN1CCc2[nH]c(-c3ccnc(NC(=O)Cc4cccnc4)c3)c(Nc3ccccc3)c2C1=O` [Example 67, N-[4-(3-anilino-5-methyl-4-oxo-4,5,6,7-tetrahydro-1H-pyrrolo[3,2-c]pyridin-2-yl)pyridin-2-yl]-2-(pyridin-3-yl)acetamide], the IC50 at human CSNK1A1 [1] was 2.41 nM; on human CSNK1D, 3.79 nM; in experiment [2], 997 nM; at human CSNK1A1 [3], 44.6 nM.

`Cc1ccc(CC(=O)Nc2cc(-c3[nH]c4c(c3Nc3ccccc3)C(=O)N(C)CC4)ccn2)cc1` [Example 68, N-[4-(3-anilino-5-methyl-4-oxo-4,5,6,7-tetrahydro-1H-pyrrolo[3,2-c]pyridin-2-yl)pyridin-2-yl]-2-(4-methylphenyl)acetamide]: the IC50 on human CSNK1A1 [1] is 3.2 nM; on human CSNK1D, 3.63 nM; in experiment [2] it was 2100 nM; at human CSNK1A1 [3], 74.2 nM.

As to `CN1CCc2[nH]c(-c3ccnc(NC(=O)Cc4cccc(S(C)(=O)=O)c4)c3)c(Nc3ccccc3)c2C1=O` [Example 69, N-[4-(3-anilino-5-methyl-4-oxo-4,5,6,7-tetrahydro-1H-pyrrolo[3,2-c]pyridin-2-yl)pyridin-2-yl]-2-[3-(methanesulfonyl)phenyl]acetamide], the IC50 on human CSNK1A1 [1] amounted to 3.13 nM; at human CSNK1D, 4.68 nM; in experiment [2], 510 nM; on human CSNK1A1 [3] it was 81.7 nM.

For `CN1CCc2[nH]c(-c3ccnc(NC(=O)Cc4ccc(C(F)F)cc4)c3)c(Nc3ccccc3)c2C1=O` [Example 78, N-[4-(3-anilino-5-methyl-4-oxo-4,5,6,7-tetrahydro-1H-pyrrolo[3,2-c]pyridin-2-yl)pyridin-2-yl]-2-[4-(difluoromethyl)phenyl]acetamide], the IC50 on human CSNK1A1 [1] stood at 2.95 nM; on human CSNK1D, 7.93 nM; in experiment [2], 3090 nM; on human CSNK1A1 [3], 95.5 nM.

Consider `CN1CCc2[nH]c(-c3ccnc(NC(=O)Cc4ccc(F)cc4F)c3)c(Nc3ccccc3)c2C1=O` [Example 82, N-[4-(3-anilino-5-methyl-4-oxo-4,5,6,7-tetrahydro-1H-pyrrolo[3,2-c]pyridin-2-yl)pyridin-2-yl]-2-(2,4-difluorophenyl)acetamide], for which the IC50 is 2.26 nM on human CSNK1A1 [1], 5.52 nM at human CSNK1D, 1150 nM in experiment [2] and 162 nM on human CSNK1A1 [3].

Turning to `CN1CCc2[nH]c(-c3ccnc(NC(=O)Cc4ccc(F)c(F)c4)c3)c(Nc3ccccc3)c2C1=O` [Example 83, N-[4-(3-anilino-5-methyl-4-oxo-4,5,6,7-tetrahydro-1H-pyrrolo[3,2-c]pyridin-2-yl)pyridin-2-yl]-2-(3,4-difluorophenyl)acetamide], the IC50 was 3.03 nM at human CSNK1A1 [1], 7.3 nM at human CSNK1D, 2920 nM in experiment [2] and 61.4 nM at human CSNK1A1 [3].

As to `Cc1cc(CC(=O)Nc2cc(-c3[nH]c4c(c3Nc3ccccc3)C(=O)N(C)CC4)ccn2)ccn1` [Example 85, N-[4-(3-anilino-5-methyl-4-oxo-4,5,6,7-tetrahydro-1H-pyrrolo[3,2-c]pyridin-2-yl)pyridin-2-yl]-2-(2-methylpyridin-4-yl)acetamide], the IC50 on human CSNK1A1 [1] was 1.78 nM; on human CSNK1D it was 3.36 nM; in experiment [2] it was 937 nM; on human CSNK1A1 [3], 26.5 nM.

Turning to `CC1(C)Cc2[nH]c(-c3ccnc(NC(=O)Cc4ccc(F)cc4)c3)c(Nc3ccccc3F)c2C(=O)N1` [Example 86, N-{4-[3-(2-fluoroanilino)-6,6-dimethyl-4-oxo-4,5,6,7-tetrahydro-1H-pyrrolo[3,2-c]pyridin-2-yl]pyridin-2-yl}-2-(4-fluorophenyl)acetamide], the IC50 on human CSNK1A1 [1] was determined as 4.44 nM; at human CSNK1D, 9.48 nM; in experiment [2] it was 6470 nM; on human CSNK1A1 [3], 110 nM.

In the case of `O=C(Cc1ccc(F)cc1)Nc1cc(-c2[nH]c3c(c2Nc2cccc(F)c2Cl)C(=O)NCC3)ccn1` [Example 87, N-{4-[3-(2-chloro-3-fluoroanilino)-4-oxo-4,5,6,7-tetrahydro-1H-pyrrolo[3,2-c]pyridin-2-yl]pyridin-2-yl}-2-(4-fluorophenyl)acetamide], the IC50 at human CSNK1A1 [1] came to 2.57 nM; on human CSNK1D, 6.02 nM; in experiment [2] it was 158 nM; at human CSNK1A1 [3], 64.7 nM.

Regarding `CC1(C)Cc2[nH]c(-c3ccnc(NC(=O)Cc4ccc(F)cc4)c3)c(Nc3cccc(F)c3Cl)c2C(=O)N1` [Example 112, N-{4-[3-(2-chloro-3-fluoroanilino)-6,6-dimethyl-4-oxo-4,5,6,7-tetrahydro-1H-pyrrolo[3,2-c]pyridin-2-yl]pyridin-2-yl}-2-(4-fluorophenyl)acetamide], the IC50 was determined as 6.69 nM on human CSNK1A1 [1], 8.41 nM on human CSNK1D, 3430 nM in experiment [2] and 167 nM at human CSNK1A1 [3].
